The nature of data set [1]: Thermodynamic solubility in aqueous buffer at pH 1 at 20 degC by HPLC. It counts as physicochemical. The conditions noted are these: aqueous buffer.
The nature of data set [2]: AUC (0-infinity) in CD1 mouse lung at 40 mg/kg, po administered as single dose. More on the design: time infinity, dose 40 mg/kg, route oral. It counts as ADME, organism-based.
For data set [3], the system named is Mycobacterium tuberculosis. Put plainly: microbe, parasite or virus in culture. To be noted: H37Rv.
Description: Antitubercular activity against Mycobacterium tuberculosis H37Rv by LORA method
Data set [4] is described as follows: Ratio of AUC (0-infinity) in lung to AUC (0-infinity) in plasma of CD1 mouse at 40 mg/kg, po administered as single dose. It is filed as ADME, organism-based. More on the design: dose 40 mg/kg, route oral.
Data set [5] can be described thus: physchem. To be noted: water, pH 7.
Description: Solubility of the compound in water at pH 7.0 by HPLC
A short description of data set [6]: Cmax in CD1 mouse lung at 40 mg/kg, po administered as single dose. It counts as ADME, organism-based. More on the design: dose 40 mg/kg, route oral.
The nature of data set [7]: Thermodynamic solubility in aqueous buffer at pH 7.4 at 20 degC by HPLC. It is filed as physicochemical.
A short description of data set [8]: physchem. To be noted: water, pH 1.
Description: Solubility of the compound in water at pH 1.0 by HPLC
A short description of data set [9]: AUC (0-infinity) in CD1 mouse plasma at 40 mg/kg, po administered as single dose. It counts as ADME, organism-based. More on the design: time infinity, dose 40 mg/kg, route oral.
Data set [10] deals with Mycobacterium tuberculosis. Put plainly: microbe, parasite or virus in culture. To be noted: H37Rv. The source holds these as a separate data set.
Data set [11] can be described thus: Cmax in CD1 mouse plasma at 40 mg/kg, po administered as single dose. It is filed as ADME, organism-based. More on the design: dose 40 mg/kg, route oral.
Data set [12] is described as follows: Half life in CD1 mouse lung at 40 mg/kg, po administered as single dose. More on the design: dose 40 mg/kg, route oral. It counts as ADME, organism-based.
Data set [13] is described as follows: in vitro. To be noted: human, liver microsomes. Background: Liver microsomes are vesicles of endoplasmic reticulum, rich in cytochrome P450 enzymes.
Description: Metabolic stability in human liver microsomes assessed as compound remaining after 1 hr
Data set [14] can be described thus: in vitro. The conditions noted are these: CD1, mouse, liver microsomes.
Description: Metabolic stability in CD1 mouse liver microsomes assessed as compound remaining after 1 hr
The nature of data set [15]: Half life in CD1 mouse plasma at 40 mg/kg, po administered as single dose. More on the design: dose 40 mg/kg, route oral. It is filed as ADME, organism-based.
Data set [16] in a line: Cmax in Sprague-Dawley rat at 5 mg/kg, iv administered as single dose. It counts as ADME, organism-based. More on the design: dose 5 mg/kg, route intravenous. To be noted: in vivo.
A short description of data set [17]: AUClast in Sprague-Dawley rat at 20 mg/kg, po administered as single dose. It is filed as ADME, organism-based. More on the design: time 0 - last, dose 20 mg/kg, route oral. The conditions noted are these: plasma.
A short description of data set [18]: Cmax in Sprague-Dawley rat at 20 mg/kg, po administered as single dose. It counts as ADME, organism-based. More on the design: dose 20 mg/kg, route oral. To be noted: in vivo.
The nature of data set [19]: Tmax in Sprague-Dawley rat at 5 mg/kg, iv administered as single dose. It is filed as ADME, organism-based. More on the design: dose 5 mg/kg, route intravenous. To be noted: in vivo.
Data set [20] is described as follows: Tmax in Sprague-Dawley rat at 20 mg/kg, po administered as single dose. It is filed as ADME, organism-based. More on the design: dose 20 mg/kg, route oral. To be noted: in vivo.
Data set [21] is described as follows: AUClast in Sprague-Dawley rat at 5 mg/kg, iv administered as single dose. It counts as ADME, organism-based. More on the design: time 0 - last, dose 5 mg/kg, route intravenous. To be noted: plasma.
Data set [22] in a line: Oral bioavailability in Sprague-Dawley rat at 20 mg/kg, po administered as single dose. It is filed as ADME, organism-based. The conditions noted are these: in vivo.
Data set [23] can be described thus: Half life in Sprague-Dawley rat at 5 mg/kg, iv administered as single dose. It counts as ADME, organism-based. More on the design: dose 5 mg/kg, route intravenous. The conditions noted are these: in vivo.

The values below come from ChEMBL document CHEMBL1629541, “Synthesis and structure-activity relationships of aza- and diazabiphenyl analogues of the antitubercular drug (6S)-2-nitro-6-{[4-(trifluoromethoxy)benzyl]oxy}-6,7-dihydro-5H-imidazo[2,1-b][1,3]oxazine (PA-824)” (J Med Chem, 2010).

Converted amounts (≈) assume the structure as drawn.

One may read the solubility (thermodynamic) as solubility found after equilibrating the solid with the medium. The term AUC(0-inf) denotes the area under the concentration-time curve extrapolated to infinity. A higher AUC(0-inf) goes with high exposure. By Kp is commonly meant the ratio of the level in a tissue or fluid to that in plasma or blood. As a reminder, the solubility is the dissolved amount per volume that the medium holds. A low value points to little dissolved substance. As a reminder, the Cmax is the maximum level reached in the sampled fluid or tissue. For orientation: half-life means the time in which the quantity being followed falls by half. A high value points to slow decline. The amount remaining is what is left of the initial amount, in per cent. Lower therefore signals a greater loss. As for `O=[N+]([O-])c1cn2c(n1)OC[C@@H](OCc1ccc(-c3ccc(C(F)(F)F)nc3)cc1)C2`, the thermodynamic solubility is 0.38 µg/mL (≈ 0.904 µM) in data set [1] and 0.17 µg/mL (≈ 0.404 µM) in [7]. In addition, the total exposure AUC(0-inf) in data set [2] amounted to 414000 ng·h/mL; in data set [9], 217000 ng·h/mL. Also, the MIC in data set [3] was 2.1 µM (≈ 0.883 µg/mL); in [10] it was 0.03 µM (≈ 0.0126 µg/mL). In addition, the Kp in data set [4] turned out to be 1.9. The solubility turned out to be 1 µg/mL (≈ 2.38 µM) in data set [5] and 11 µg/mL (≈ 26.2 µM) in [8]. In addition, the values for the Cmax in data set [6] and in [11] were 373000 ng/mL and 14000 ng/mL, respectively. In data set [12], the half-life is 9.1 h. The compound also showed a fraction remaining at 1 h in data set [13] of 86%.

With `O=[N+]([O-])c1cn2c(n1)OC[C@@H](OCc1ccc(-c3ccc(OC(F)(F)F)cc3)nn1)C2`, the solubility (thermodynamic) is 10 µg/mL (≈ 22.9 µM) in [1] and 3 µg/mL (≈ 6.86 µM) in [7]. Further, the area under the curve AUC(0-inf) was found to be 94000 ng·h/mL in data set [2] and 52000 ng·h/mL in data set [9]. The values for the MIC in data set [3] and in data set [10] were 1.7 µM (≈ 0.743 µg/mL) and 0.075 µM (≈ 0.0328 µg/mL), respectively. In addition, the Cmax came out at 7000 ng/mL in [6] and 3600 ng/mL in [11]. Also, in data set [8], the solubility was 31 µg/mL (≈ 70.9 µM). For the same compound, the values for the share remaining at 1 h in data set [14] and in data set [13] were 92% and 94%, respectively. The half-life is 2.9 h in data set [15] and 3.4 h in data set [12].

By AUC(0-t) is commonly meant exposure summed from dosing to a finite time, without extrapolation to infinity. Low readings indicate less exposure, high ones more exposure. The Tmax is the time from dosing to the highest level. What is called bioavailability is the share of a dose that reaches the circulation, judged against a reference dose that is usually intravenous. A lower bioavailability goes with poor availability. For the compound `O=[N+]([O-])c1cn2c(n1)OC[C@@H](OCc1cnc(-c3ccc(OC(F)(F)F)cc3)cn1)C2`, the solubility (thermodynamic) in [1] and in [7] was 0.44 µg/mL (≈ 1.01 µM) each time. The AUC(0-inf) in data set [2] was above 324000 ng·h/mL; in [9], 152000 ng·h/mL. Moreover, the values for the MIC in data set [3] and in data set [10] were 1 µM (≈ 0.437 µg/mL) and 0.023 µM (≈ 0.0101 µg/mL), respectively. Further, the Cmax is 3900 ng/mL in data set [16], 23000 ng/mL in data set [6], 7000 ng/mL in [18] and 9600 ng/mL in [11]. Also, the exposure AUC(0-t) was determined as 29400 ng·h/mL in data set [17] and 16300 ng·h/mL in data set [21]. Further, the solubility in [8] turned out to be 2.8 µg/mL (≈ 6.4 µM). For the same compound, the results for the Tmax in [19] and in data set [20] were 0.167 h and 5 h, respectively. Further, the results for the half-life in [15], in data set [12] and in data set [23] were 7.2 h, above 8 h and 24 h, respectively. In data set [22], this compound registered a bioavailability of 45%. The same compound yielded an amount remaining at 1 h in [13] of 98%.

With `O=[N+]([O-])c1cn2c(n1)OC[C@@H](OCc1ccc(-c3ccc(C(F)(F)F)cn3)cc1)C2`, the results for the solubility (thermodynamic) in data set [1] and in data set [7] were 0.84 µg/mL (≈ 2 µM) and 0.42 µg/mL (≈ 0.999 µM), respectively. In addition, the total exposure AUC(0-inf) in data set [2] is 67000 ng·h/mL; in [9], 20000 ng·h/mL. In addition, the MIC in [3] was 1 µM (≈ 0.42 µg/mL); in data set [10], 0.06 µM (≈ 0.0252 µg/mL). In addition, the Kp in data set [4] came to 3.4. The solubility in [5] amounted to 0.2 µg/mL (≈ 0.476 µM); in [8] it was 5.1 µg/mL (≈ 12.1 µM). In addition, the Cmax was found to be 34000 ng/mL in data set [6] and 1100 ng/mL in data set [11]. For the same compound, the share remaining at 1 h was determined as 90% in data set [14] and 93% in data set [13]. For the same compound, the half-life in data set [15] is 8.8 h; in [12], 10 h.

Regarding `O=[N+]([O-])c1cn2c(n1)OC[C@@H](OCc1ccc(-c3ccc(OC(F)(F)F)c(F)c3)cn1)C2`, the results for the solubility (thermodynamic) in [1] and in data set [7] were 67 µg/mL (≈ 147 µM) and 1.5 µg/mL (≈ 3.3 µM), respectively. Further, the results for the AUC(0-inf) in data set [2] and in data set [9] were 155000 ng·h/mL and 137000 ng·h/mL, respectively. The MIC in data set [3] stood at 1.3 µM (≈ 0.591 µg/mL); in data set [10], 0.05 µM (≈ 0.0227 µg/mL). In addition, the partition ratio (Kp) in [4] amounted to 1.1. Also, the solubility came to 30 µg/mL (≈ 66 µM) in data set [5] and 334 µg/mL (≈ 735 µM) in data set [8]. In addition, the Cmax in data set [6] stood at 9100 ng/mL; in data set [11] it was 7600 ng/mL. The figures for the fraction remaining at 1 h in data set [14] and in data set [13] were 86% and 97%, respectively. Further, the half-life in data set [15] is 8.4 h; in data set [12], 7.9 h.

Regarding `O=[N+]([O-])c1cn2c(n1)OC[C@@H](OCc1ccc(-c3ncc(C(F)(F)F)cc3Cl)cc1)C2`, the MIC in data set [3] came to 1 µM (≈ 0.455 µg/mL); in [10], 0.025 µM (≈ 0.0114 µg/mL). Moreover, the solubility turned out to be 3.3 µg/mL (≈ 7.26 µM) in data set [5] and 2 µg/mL (≈ 4.4 µM) in data set [8]. The figures for the amount remaining at 1 h in [14] and in data set [13] were 80% and 86%, respectively.

Regarding `O=[N+]([O-])c1cn2c(n1)OC[C@@H](OCc1ccc(-c3ccnc(F)c3)cc1)C2`, the MIC was 1.4 µM (≈ 0.518 µg/mL) in data set [3] and 0.23 µM (≈ 0.0852 µg/mL) in data set [10]. Besides, the solubility in data set [5] stood at 14 µg/mL (≈ 37.8 µM); in data set [8], 15 µg/mL (≈ 40.5 µM). Also, the results for the share remaining at 1 h in [14] and in [13] were 86% and 93%, respectively.

Regarding `O=[N+]([O-])c1cn2c(n1)OC[C@@H](OCc1cnc(-c3ccc(OC(F)(F)F)cc3)nc1)C2`, the thermodynamic solubility amounted to 1.5 µg/mL (≈ 3.43 µM) in data set [1] and 1.2 µg/mL (≈ 2.74 µM) in data set [7]. The area under the curve AUC(0-inf) is 131000 ng·h/mL in data set [2] and 43000 ng·h/mL in data set [9]. Further, the results for the MIC in data set [3] and in data set [10] were 1.8 µM (≈ 0.787 µg/mL) and 0.027 µM (≈ 0.0118 µg/mL), respectively. Also, the values for the highest concentration (Cmax) in [6] and in data set [11] were 4000 ng/mL and 1200 ng/mL, respectively. This compound returned a solubility in data set [8] of 3 µg/mL (≈ 6.86 µM). Further, the amount remaining at 1 h amounted to 87% in [14] and 96% in data set [13]. Also, the half-life in data set [15] was 23 h; in data set [12], 18 h.

Compound `O=[N+]([O-])c1cn2c(n1)OC[C@@H](OCc1ccc(OC(F)(F)F)cc1)C2` [PRETOMANID] registered a thermodynamic solubility in [1] of 11 µg/mL (≈ 30.6 µM).
